Measured values: US12617814B2, “Neuroactive steroids and methods of use thereof” (Sage Therapeutics, LLC, priority 2013, dated 2026)

Legend:
[1] = molecular target: T1, NMDA receptor (GRIN1/GRIN2A subunits) (Homo sapiens, UniProt Q05586+Q12879); assay: NMDA potentiation, whole-cell patch clamp of HEK cells expressing NMDA receptor; type: cell-based; details: for activation at 0.1 µM: HEK293, 0.1 uM compound, read-out: NMDA 1a2A (%) Potentiation 0.1 uM; for activation at 0.1 µM / activation at 1 µM / NMDA 1a2A (%) Potentiation 0.1 uM / NMDA 1a2A (%) Potentiation 1 uM: HEK cells, 30 μM NMDA and 5.0 μM Glycine; for activation at 1 µM: HEK293, 1 uM compound, read-out: NMDA 1a2A (%) Potentiation 1 uM; for NMDA 1a2A (%) Potentiation 0.1 uM: 0.1 uM compound; for NMDA 1a2A (%) Potentiation 1 uM: 1 uM compound
T1 construct: expressed in transfected cells
Method: NMDA potentiation was assessed using either whole cell patch clamp of mammalian cells which expressed NMDA receptors, or using two-electrode voltage clamp (TEVC) of Xenopus Laevis oocytes expressing NMDA receptors.
NMDA/Glycine peak and steady-state currents were recorded from stably transfected cells expressing the NMDA receptor and the modulatory effects of the test items on these currents were investigated.
Cells were stably transfected with human GRIN1 (variant NR1-3). These cells were transiently transfected (Lipofectamine™) with GRIN2A cDNA and CD8 (pLeu) antigene cDNA. About 24-72 hours following transfection 1 μl Dynabeads M-45 CD8 was added to identify successfully transfected cells (Jurman et al., Biotechniques (1994) 17:876-881). Cells were passaged to a confluence of 50-80%. Cells were seeded onto Poly-L-Lysine coated cover slips covered with culture complete medium in a 35 mm culture dish. Confluent clusters of cells are electrically coupled (Pritchett et al., Science (1988), 242:1306-8). Because responses in distant cells are not adequately voltage clamped and because of uncertainties about the extent of coupling (Verdoorn et al., Neuron (1990), 4:919-28), cells were cultivated at a density that enables single cells (without visible connections to neighboring cells) to be measured. Cells were incubated at 37° C. in a humidified atmosphere with 5% CO2 (rel. humidity about 95%). The cells were continuously maintained in and passaged in sterile culture flasks containing a 1:1 mixture of Dulbecco's modified eagle medium and nutrient mixture F-12 (D-MEM/F-12 1×, liquid, with L-Glutamine) supplemented with 9% fetal bovine serum and 0.9% Penicillin/Streptomycin solution. The complete medium was supplemented with 3.0 μg/ml Puromycin.
Whole cell currents were measured with HEKA EPC-10 amplifiers using PatchMaster software. Cell culture dishes for recordings were placed on the dish holder of the microscope and continuously perfused (1 ml/min) with “bath solution” (NaCl 137 mM, KCl 4 mM, CaCl2 1.8 mM, MgCl2 1 mM, HEPES 10 mM, D-Glucose 10 mM, pH (NaOH) 7.4). All solutions applied to cells including the pipette solution were maintained at room temperature (19° C.-30° C.). After formation of a Gigaohm seal between the patch electrodes and transfected individual HEK 293 cells (pipette resistance range: 2.5 MΩ-6.0 MΩ; seal resistance range: >1 GQ) the cell membrane across the pipette tip was ruptured to assure electrical access to the cell interior (whole-cell patch-configuration). At this point the bath solution is switched to “NMDA bath solution” (NaCl 137 mM, KCl 4 mM, CaCl2 2.8 mM, HEPES 10 mM, D-Glucose 10 mM, Cremophore 0.02%, pH (NaOH) 7.4). NMDA inward currents were measured upon application of 30 μM NMDA (and 5.0 μM Glycine) to patch-clamped cells (2 applications) for 5 s. The cells were voltage clamped at a holding potential of −80 mV. For the analysis of test articles, NMDA receptors were stimulated by 30 μM NMDA and 5.0 μM Glycine after sequential pre-incubation of increasing concentrations of the test article. Pre-incubation duration was 30 s. Stimulation duration was 5 s Test articles were dissolved in DMSO to form stock solutions of 0.1 mM and 1 mM. Test articles were diluted to 0.1 μM and 1 μM in “NMDA bath solution”. Both concentrations of test articles were tested on each cell. The same concentration was applied at least three times or until the steady state current amplitude was reached. Every day one cell was tested with 50 μM PREGS (positive control) using the same application protocol to test whether cells were successfully transfected with NMDA receptors.

NMDA (NR1a/NR2A) = NMDA (NR1a/NR2A) (Homo sapiens, UniProt Q05586+Q12879); details: cited from earlier work
NMDA (NR1a/NR2A), sequence (Q12879 23-1464, other chains not shown): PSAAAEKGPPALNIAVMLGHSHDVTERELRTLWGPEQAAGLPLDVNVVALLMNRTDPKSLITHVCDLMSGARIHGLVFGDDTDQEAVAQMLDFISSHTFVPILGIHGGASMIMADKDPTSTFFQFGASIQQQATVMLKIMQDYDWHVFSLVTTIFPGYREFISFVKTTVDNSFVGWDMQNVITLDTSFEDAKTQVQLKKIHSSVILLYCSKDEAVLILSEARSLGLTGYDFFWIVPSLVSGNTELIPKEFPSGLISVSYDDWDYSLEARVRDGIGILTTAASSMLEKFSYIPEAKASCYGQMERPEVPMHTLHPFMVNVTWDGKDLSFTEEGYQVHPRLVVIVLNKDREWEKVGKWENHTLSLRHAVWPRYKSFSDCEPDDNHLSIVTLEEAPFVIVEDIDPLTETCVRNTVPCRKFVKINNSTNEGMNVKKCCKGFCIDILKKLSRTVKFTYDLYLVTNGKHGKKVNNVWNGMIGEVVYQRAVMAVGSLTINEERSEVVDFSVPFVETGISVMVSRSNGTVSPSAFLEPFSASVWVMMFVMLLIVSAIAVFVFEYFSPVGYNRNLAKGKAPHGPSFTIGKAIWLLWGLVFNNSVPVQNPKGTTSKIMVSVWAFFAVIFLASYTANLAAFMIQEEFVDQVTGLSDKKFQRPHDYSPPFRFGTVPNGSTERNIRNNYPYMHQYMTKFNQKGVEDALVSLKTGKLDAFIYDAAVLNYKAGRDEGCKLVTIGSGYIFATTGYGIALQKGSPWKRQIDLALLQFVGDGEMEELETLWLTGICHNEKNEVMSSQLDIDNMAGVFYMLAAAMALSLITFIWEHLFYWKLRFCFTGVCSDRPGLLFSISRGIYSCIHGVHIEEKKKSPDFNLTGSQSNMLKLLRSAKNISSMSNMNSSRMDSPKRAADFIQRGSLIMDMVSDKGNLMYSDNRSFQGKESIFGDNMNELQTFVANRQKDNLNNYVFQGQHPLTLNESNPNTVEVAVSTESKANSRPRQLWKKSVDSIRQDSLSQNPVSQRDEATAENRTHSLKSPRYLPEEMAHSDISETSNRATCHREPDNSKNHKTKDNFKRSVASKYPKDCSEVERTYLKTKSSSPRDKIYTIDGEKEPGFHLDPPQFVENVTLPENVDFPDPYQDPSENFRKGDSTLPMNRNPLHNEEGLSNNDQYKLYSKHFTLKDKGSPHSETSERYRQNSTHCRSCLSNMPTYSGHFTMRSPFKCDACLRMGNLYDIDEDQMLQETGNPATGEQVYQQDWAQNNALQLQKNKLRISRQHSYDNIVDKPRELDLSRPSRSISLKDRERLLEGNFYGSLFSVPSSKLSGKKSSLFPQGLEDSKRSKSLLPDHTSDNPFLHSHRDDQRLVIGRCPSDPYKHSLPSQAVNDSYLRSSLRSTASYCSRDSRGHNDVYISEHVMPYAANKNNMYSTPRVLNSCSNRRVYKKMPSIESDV

T1 sequence (Q12879 23-1464, other chains not shown): as above

Compound | activation at 0.1 µM [1] [%] | activation at 1 µM [1] [%] | other results
C[C@H](CCC(C)(C)O)[C@H]1CC[C@H]2[C@@H]3CC=C4C[C@@H](O)CC[C@]4(C)[C@H]3CC[C@]12C (stereo in doubt) [Org-1, reference compound] | 10 to 75 | 150 to 250 | modulation of NMDA (NR1a/NR2A) (NMDA (NR1a/NR2A)): positive modulator; selectivity NMDA over GABAA (NMDA (NR1a/NR2A)): selectively modulate NMDA over GABAA
CC(CCC(C)(C)O)[C@H]1CC[C@H]2[C@@H]3CC[C@H]4C[C@@](C)(O)CC[C@]4(C)[C@H]3CC[C@]12C (stereo partly shown) [Comparison compound 3, reference compound] | 75 to 150 | 150 to 250 | 
CC(C)(O)CCC[C@H]1CC[C@H]2[C@@H]3CC[C@H]4C[C@@](C)(O)CC[C@]4(C)[C@H]3CC[C@]12C [Comparison compound 4, reference compound] | 10 to 75 | 75 to 150 | loss of NMDA potentiation compared to Comparison Compound 3 ([1]; measured at 0.1 μM concentration): five fold
CCC(C)(O)CC[C@@H](C)[C@H]1CC[C@H]2[C@@H]3CC[C@H]4C[C@@](C)(O)CC[C@]4(C)[C@H]3CC[C@]12C (stereo partly shown) [Comparison compound 5, reference compound] |  |  | NMDA 1a2A (%) Potentiation 0.1 uM [1]: A (“A” indicates 10-75% potentiation); NMDA 1a2A (%) Potentiation 1 uM [1]: A (“A” indicates 10-75% potentiation)
C[C@H](CCC(O)C(F)(F)F)[C@H]1CC[C@H]2[C@@H]3CC=C4C[C@@](C)(O)CC[C@]4(C)[C@H]3CC[C@]12C (stereo partly shown) [Compound 1-11] | 150 to 250 | 150 to 250 | 
C[C@H](CCC(O)C(F)(F)F)[C@H]1CC[C@H]2[C@@H]3CC[C@H]4C[C@@](C)(O)CC[C@]4(C)[C@H]3CC[C@]12C (stereo partly shown) [Compound 1-12] | 10 to 75 | 75 to 150 | 
C[C@H](CC[C@H](O)C(F)(F)F)[C@H]1CC[C@H]2[C@@H]3CC=C4C[C@@](C)(O)CC[C@]4(C)[C@H]3CC[C@]12C [Compound 1-15] | 75 to 150 | 150 to 250 | 
C[C@H](CC[C@@H](O)C(F)(F)F)[C@H]1CC[C@H]2[C@@H]3CC=C4C[C@@](C)(O)CC[C@]4(C)[C@H]3CC[C@]12C [Compound 1-17] | 150 to 250 | 150 to 250 | 
CCC(C)(O)CC[C@@H](C)[C@H]1CC[C@H]2[C@@H]3CC=C4C[C@@](C)(O)CC[C@]4(C)[C@H]3CC[C@]12C (stereo partly shown) [Compound 4-6] | 150 to 250 | 150 to 250 | 
CCC(C)(O)CC[C@@H](C)[C@H]1CC[C@H]2[C@@H]3CC[C@H]4C[C@@](C)(O)CC[C@]4(C)[C@H]3CC[C@]12C (stereo partly shown) [Compound 4-7] |  |  | NMDA 1a2A (%) Potentiation 0.1 uM [1]: B (“B” indicates potentiation of >75% to 150%); NMDA 1a2A (%) Potentiation 1 uM [1]: C (“C” indicates potentiation of >150 to 250%)
CCCC(C)(O)CC[C@@H](C)[C@H]1CC[C@H]2[C@@H]3CC=C4C[C@@](C)(O)CC[C@]4(C)[C@H]3CC[C@]12C (stereo partly shown) [Compound 5-2] | 75 to 150 | 150 to 250 | 
CCCC(C)(O)CC[C@@H](C)[C@H]1CC[C@H]2[C@@H]3CC[C@H]4C[C@@](C)(O)CC[C@]4(C)[C@H]3CC[C@]12C (stereo partly shown) [Compound 5-3] | 10 to 75 | 75 to 150 | 
C=CCC(C)(O)CC[C@@H](C)[C@H]1CC[C@H]2[C@@H]3CC=C4C[C@@](C)(O)CC[C@]4(C)[C@H]3CC[C@]12C (stereo partly shown) [Compound 6-2] | 75 to 150 | 150 to 250 | 
CCCCC(C)(O)CC[C@@H](C)[C@H]1CC[C@H]2[C@@H]3CC=C4C[C@@](C)(O)CC[C@]4(C)[C@H]3CC[C@]12C (stereo partly shown) [Compound 7-2] | 10 to 75 | 75 to 150 | 
CC(C)C(C)(O)CC[C@@H](C)[C@H]1CC[C@H]2[C@@H]3CC=C4C[C@@](C)(O)CC[C@]4(C)[C@H]3CC[C@]12C (stereo partly shown) [Compound 8-2] | 75 to 150 | 150 to 250 | 
CC(C)C(C)(O)CC[C@@H](C)[C@H]1CC[C@H]2[C@@H]3CC[C@H]4C[C@@](C)(O)CC[C@]4(C)[C@H]3CC[C@]12C (stereo partly shown) [Compound 8-3] | 75 to 150 | > 250 | 
C[C@H](CCC(C)(O)C1CC1)[C@H]1CC[C@H]2[C@@H]3CC=C4C[C@@](C)(O)CC[C@]4(C)[C@H]3CC[C@]12C (stereo partly shown) [Compound 9-2] | 150 to 250 | 150 to 250 | 
